Assay results from patent US20250129140A1, “ANTI-HCMV ANTIBODIES AND ANTIGEN-BINDING FRAGMENTS THEREOF” (ICAHN SCHOOL OF MEDICINE AT MOUNT SINAI, priority 2021, published 2025).

Tested on: CMV TB40/E infected fibroblasts
Assay: SCID mouse gelfoam implant model of CMV proliferation
Type: in vivo, SCID mice
Settings: fully human mAbs 4 or 18 mg/kg, ganciclovir 50 mg/kg; i.p. every three days; day ten; versus isotype control
Procedure: At day ten post-implantation, the cells were released from the gelfoam and DNA extracted from the cells was subjected to qPCR for the HCMV UL123 and β-actin genes. The relative CMV levels cells were determined from Ct values of qPCR analysis (in triplicate) from cells collected from three mice/treatment. Statistical tests were performed using ordinary one-way ANOVA with comparisons to isotype treated cells as a control and a Dunnett's post-test; **, p<0.01; ***, p<0.001; ****, p<0.0001.
The gelfoam was implanted subcutaneously in three mice per group. […] Treatments were administrated every three days for nine days. At day ten post-implant, the gelfoam was removed and cells were released from the gel foam by collagenase treatment. The total DNA was harvest from the cells, quantified, and subjected to qPCR for UL123 (CMV gene) and b-actin (housekeeping geen) using SYBR green to evaluate virus proliferation. The qPCR analysis was performed in triplicate from three animals to determine the Ct values for UL123 and b-actin to calculate the relative levels of CMV DNA from the gelfoam samples.

With `Nc1nc(O)c2ncn(COC(CO)CO)c2n1` [ganciclovir, reference compound] the “CMV DNA levels (UL123 relative to β-actin, qPCR)” value was “effective at decreasing CMV DNA levels”.
